# Source: patent US10385103B2, “Cell-permeable (ICP)-SOCS3 recombinant protein and uses thereof” (CELLIVERY THERAPEUTICS, INC., priority 2014, dated 2019)
# Test system: RAW 264.7 cells
# Assay: Quantitative cell-permeability of FITC-labeled aMTD- or rPeptide-fused CRA recombinant proteins (flow cytometry)
# Assay type: cell-based
# Outline: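 Uptake of fluorescently labeled, peptide-fused cargo proteins was quantified by flow cytometry (Guava, Millipore) and analyzed in FlowJo software. RAW 264.7 cells received 10 μM FITC-labeled protein for 1 hour at 37° C., were rinsed three times with cold PBS, and were trypsinized with 0.25% tripsin/EDTA for 20 minutes at 37° C. to remove bound protein before measurement. Permeability was expressed relative to reference proteins.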
# [1] = cell-permeability of aMTD-fused CRA recombinant protein relative to negative control (A: rP38)
# [2] = cell-permeability of aMTD-fused CRA recombinant protein relative to reference CPP (B: MTM12)
# [3] = cell-permeability of aMTD-fused CRA recombinant protein relative to reference CPP (C: MTD85)
# [4] = cell-permeability relative to negative control rP38 (A type), aMTD-fused CRA recombinant protein, 10 μM FITC-labeled, 1 hour, 37° C., RAW 264.7 cells
# [5] = cell-permeability relative to reference CPP MTD85 (C type), aMTD-fused CRA recombinant protein, 10 μM FITC-labeled, 1 hour, 37° C., RAW 264.7 cells
# [6] = cell-permeability relative to reference CPP MTM12 (B type), aMTD-fused CRA recombinant protein, 10 μM FITC-labeled, 1 hour, 37° C., RAW 264.7 cells
substance,measurement,setting,value
850 (LVIALAAPVALP; Amino acid Sequence of aMTD850) [compound 850],Relative Ratio (Fold) A,[1],8.8 Fold
same,Relative Ratio (Fold) B,[2],5.9 Fold
same,Relative Ratio (Fold) C,[3],3.0 Fold
82 (AVVLAPVAAVLP; Amino acid Sequence of aMTD82) [compound 82],Relative Ratio (Fold) A,[4],2.1 Fold
same,Relative Ratio (Fold) C,[5],0.7 Fold
same,Relative Ratio (Fold) B,[6],1.4 Fold
504 (LIVALAVPALAP; Amino acid Sequence of aMTD504) [compound 504],Relative Ratio (Fold) A,[4],3.3 Fold
same,Relative Ratio (Fold) C,[5],1.1 Fold
same,Relative Ratio (Fold) B,[6],2.2 Fold
805 (LVLIAAAPIALP; Amino acid Sequence of aMTD805) [compound 805],Relative Ratio (Fold) A,[1],22.3 Fold
same,Relative Ratio (Fold) B,[2],14.9 Fold
same,Relative Ratio (Fold) C,[3],7.6 Fold
24 (IALAAPALIVAP; Amino acid Sequence of aMTD24) [compound 24],Relative Ratio (Fold) A,[4],2.3 Fold
same,Relative Ratio (Fold) C,[5],0.8 Fold
same,Relative Ratio (Fold) B,[6],1.6 Fold
806 (LVALAVPAAVLP; Amino acid Sequence of aMTD806) [compound 806],Relative Ratio (Fold) A,[1],36.7 Fold
same,Relative Ratio (Fold) B,[2],24.6 Fold
same,Relative Ratio (Fold) C,[3],12.4 Fold
846 (IAVAVAAPLLVP; Amino acid Sequence of aMTD846) [compound 846],Relative Ratio (Fold) A,[1],11.7 Fold
same,Relative Ratio (Fold) B,[2],6.8 Fold
same,Relative Ratio (Fold) C,[3],4.0 Fold
2 (AAAVPLLAVVVP; Amino acid Sequence of aMTD2) [compound 2],Relative Ratio (Fold) A,[1],40.9 Fold
same,Relative Ratio (Fold) B,[2],27.2 Fold
same,Relative Ratio (Fold) C,[3],13.8 Fold
same,Relative Ratio (Fold) A,relative cell-permeability of aMTD vs reference A (not defined),40.9 Fold
same,Relative Ratio (Fold) B,relative cell-permeability of aMTD vs reference CPP B: MTM12,27.2 Fold
same,Relative Ratio (Fold) C,relative cell-permeability of aMTD vs reference CPP C: MTD85,13.8 Fold
885 (LVAIAPAVAVLP; Amino acid Sequence of aMTD885) [compound 885],Relative Ratio (Fold) A,[1],28.3 Fold
same,Relative Ratio (Fold) B,[2],19.0 Fold
same,Relative Ratio (Fold) C,[3],9.6 Fold
345 (ALLIVAPVAVAP; Amino acid Sequence of aMTD345) [compound 345],Relative Ratio (Fold) A,[1],8.9 Fold
same,Relative Ratio (Fold) B,[2],5.9 Fold
same,Relative Ratio (Fold) C,[3],3.0 Fold
43 (LLAAPLVVAAVP; Amino acid Sequence of aMTD43) [compound 43],Relative Ratio (Fold) A,[4],2.1 Fold
same,Relative Ratio (Fold) C,[5],0.7 Fold
same,Relative Ratio (Fold) B,[6],1.4 Fold
882 (AIALVVPAVAVP; Amino acid Sequence of aMTD882) [compound 882],Relative Ratio (Fold) A,[1],35.0 Fold
same,Relative Ratio (Fold) B,[2],23.4 Fold
same,Relative Ratio (Fold) C,[3],11.8 Fold
185 (AALVLPLIIAAP; Amino acid Sequence of aMTD185) [compound 185],Relative Ratio (Fold) A,[1],8.5 Fold
same,Relative Ratio (Fold) B,[2],5.7 Fold
same,Relative Ratio (Fold) C,[3],2.9 Fold
910 (VAALLPAVVVAP; Amino acid Sequence of aMTD910) [compound 910],Relative Ratio (Fold) A,[1],149.5 Fold
same,Relative Ratio (Fold) B,[2],99.4 Fold
same,Relative Ratio (Fold) C,[3],50.2 Fold
543 (LLAALIAPAALP; Amino acid Sequence of aMTD543) [compound 543],Relative Ratio (Fold) A,[1],11.7 Fold
same,Relative Ratio (Fold) B,[2],7.9 Fold
same,Relative Ratio (Fold) C,[3],4.0 Fold
3 (AALLVPAAVLAP; Amino acid Sequence of aMTD3) [compound 3],Relative Ratio (Fold) A,[1],27.0 Fold
same,Relative Ratio (Fold) B,[2],18.0 Fold
same,Relative Ratio (Fold) C,[3],9.1 Fold
889 (ILVAAAPIAALP; Amino acid Sequence of aMTD889) [compound 889],Relative Ratio (Fold) A,[1],30.3 Fold
same,Relative Ratio (Fold) B,[2],20.3 Fold
same,Relative Ratio (Fold) C,[3],10.3 Fold
442 (ALAALVPAVLVP; Amino acid Sequence of aMTD442) [compound 442],Relative Ratio (Fold) A,[1],20.4 Fold
same,Relative Ratio (Fold) B,[2],12.6 Fold
same,Relative Ratio (Fold) C,[3],6.9 Fold
